Molecules are shown by their SMILES. pIC50: −log10 of the molar value.

The term pIC50 denotes the IC50 on a negative log10 scale, so that one unit is a factor of ten.

For one assay, the target named is T1, recombinant ASK1 (Homo sapiens, UniProt Q99683).
T1 construct: purchased Carna Biosciences
The experiment in a line: ASK1 Biochemical Assay (HTRF KinEASE-STK S3). The settings on record: ATP 100 μM; read-out: Biochemical Assay IC50. The method in brief:
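Recombinant ASK1 (5 ng) preincubated with compound 1 h at 23 °C in MOPS pH 7 buffer with Mg-acetate, DTT, NP40, glycerol, BSA and 1% DMSO. Inhibition calculated against vehicle after substrate-blank subtraction.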
(In TR-FRET formats the signal depends on donor and acceptor labels being close together.)

Another assay has as its target T2, Human ASK1 (Homo sapiens, UniProt Q99683).
T2 construct: expressed in transfected cells; host or cells: HEK293T-AP1
T2 sequence (Q99683 1-1374): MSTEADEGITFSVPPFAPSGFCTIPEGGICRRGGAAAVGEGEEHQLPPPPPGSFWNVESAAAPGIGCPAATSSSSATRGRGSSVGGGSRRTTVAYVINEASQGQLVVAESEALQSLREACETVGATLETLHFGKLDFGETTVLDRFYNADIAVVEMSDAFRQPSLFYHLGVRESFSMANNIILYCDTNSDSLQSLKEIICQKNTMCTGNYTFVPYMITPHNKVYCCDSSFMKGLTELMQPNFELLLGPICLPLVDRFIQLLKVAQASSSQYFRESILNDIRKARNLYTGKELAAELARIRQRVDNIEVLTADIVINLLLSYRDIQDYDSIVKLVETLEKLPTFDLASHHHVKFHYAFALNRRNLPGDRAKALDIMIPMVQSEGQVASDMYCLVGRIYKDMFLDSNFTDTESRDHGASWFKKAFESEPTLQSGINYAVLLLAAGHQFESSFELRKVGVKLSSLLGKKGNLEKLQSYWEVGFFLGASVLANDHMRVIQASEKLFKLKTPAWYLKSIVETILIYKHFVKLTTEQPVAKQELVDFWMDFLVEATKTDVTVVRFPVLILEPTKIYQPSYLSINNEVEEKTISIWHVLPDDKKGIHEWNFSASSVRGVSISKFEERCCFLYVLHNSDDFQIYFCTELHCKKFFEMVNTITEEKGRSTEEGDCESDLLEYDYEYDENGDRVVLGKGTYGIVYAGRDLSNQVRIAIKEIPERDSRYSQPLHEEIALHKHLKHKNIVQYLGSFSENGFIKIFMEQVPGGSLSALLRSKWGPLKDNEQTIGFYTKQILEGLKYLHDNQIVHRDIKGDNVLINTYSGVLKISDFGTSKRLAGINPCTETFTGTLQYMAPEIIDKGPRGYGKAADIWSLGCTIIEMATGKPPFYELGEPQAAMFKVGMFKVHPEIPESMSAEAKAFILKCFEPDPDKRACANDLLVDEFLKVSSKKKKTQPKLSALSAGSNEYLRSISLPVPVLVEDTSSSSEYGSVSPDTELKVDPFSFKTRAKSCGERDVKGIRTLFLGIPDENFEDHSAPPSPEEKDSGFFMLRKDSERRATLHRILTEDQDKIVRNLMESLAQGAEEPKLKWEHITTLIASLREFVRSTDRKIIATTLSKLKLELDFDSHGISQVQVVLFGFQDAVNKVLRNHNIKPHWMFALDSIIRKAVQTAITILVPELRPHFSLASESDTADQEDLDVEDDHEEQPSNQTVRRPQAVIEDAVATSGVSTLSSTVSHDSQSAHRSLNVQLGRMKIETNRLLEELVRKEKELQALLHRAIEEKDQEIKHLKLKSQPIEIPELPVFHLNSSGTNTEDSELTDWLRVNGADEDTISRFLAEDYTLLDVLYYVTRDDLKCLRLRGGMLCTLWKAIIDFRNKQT
In words: ASK1 Cell Based Assay (phospho p38 read out in hASK1 transfected HEK293T-AP1 cells). The settings on record: HEK293T-AP1 cells, 1 mM hydrogen peroxide, phospho p38; read-out: Cell Based Assay IC50. The method in brief:
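HEK293T-AP1 cells transfected with hASK1, after 24 h treated with compounds for 24 h (0.2% DMSO), then stimulated with 1 mM H2O2 for 1 h with compounds present.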

For the compound `CC(C)n1cnnc1-c1cccc(N2CCN(c3ccc(N4CCN(C(=O)CC#N)CC4)cc3)C2=O)n1` [Example 1137, 3-(4-(4-(3-(6-(4-isopropyl-4H-1,2,4-triazol-3-yl)pyridin-2-yl)-2-oxoimidazolidin-1-yl)phenyl)piperazin-1-yl)-3-oxopropanenitrile], the pIC50 at recombinant ASK1 is more than 7.00; at Human ASK1, less than 7.00.

Turning to `CC(C)n1cnnc1-c1cccc(N2CCN(c3ccc(N4CCC(F)CC4)cc3)C2=O)n1` [Example 1138, 1-(4-(4-fluoropiperidin-1-yl)phenyl)-3-(6-(4-isopropyl-4H-1,2,4-triazol-3-yl)pyridin-2-yl)imidazolidin-2-one], the negative logarithm of the IC50 (pIC50) on recombinant ASK1 was more than 7.00; on Human ASK1, less than 7.00.

As for `CNC1(C2CCN(c3ccc(N4CCN(c5cccc(-c6nncn6C(C)C)n5)C4=O)cc3)CC2)COC1` [Example 1139, 1-(6-(4-isopropyl-4H-1,2,4-triazol-3-yl)pyridin-2-yl)-3-(4-(4-(3-(methylamino)oxetan-3-yl)piperidin-1-yl)phenyl)imidazolidin-2-one], the pIC50 on recombinant ASK1 was more than 7.00; on Human ASK1 it was less than 7.00.

As for `CNC(=O)C1CC2CCC(C1)N2c1ccc(N2CCN(c3cccc(-c4nncn4C(C)C)n3)C2=O)cc1` (centres unmarked) [Example 1140, 8-(4-(3-(6-(4-isopropyl-4H-1,2,4-triazol-3-yl)pyridin-2-yl)-2-oxoimidazolidin-1-yl)phenyl)-N-methyl-8-aza-bicyclo[3.2.1]octane-3-carboxamide], the negative-log IC50 (pIC50) is more than 7.30 on recombinant ASK1 and more than 7.00 at Human ASK1.

For the origin of these results see patent publication US20220332700A1, “NOVEL APOPTOSIS SIGNAL-REGULATING KINASE 1 INHIBITORS” (MANKIND PHARMA LTD, priority 2019, published 2022).
